Data published in patent US20260374766A1, “METHODS FOR TREATING CANCER” (Antares Therapeutics, Inc., priority 2022, published 2026).
Like-named read-outs stand apart in the source and are kept apart here.

How the values were obtained:
p53 Y220C = p53 Y220C (Homo sapiens, UniProt P04637, Y220C); test: Luciferase Reporter Assay (Luc), p53 response element, NClH1299 cells with inducible p53 Y220C; type: cell-based; settings: luciferase reporter, NClH1299 inducible p53 Y220C, 6 hour; for AC50: read-out: Luc P53 Y220C AC50
Outline: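 Luciferase activity is measured directly after One-Glo addition and a 5-minute room-temperature shake. Before that, cells plated at 5,000 per well receive doxycycline at 0.5 ug/mL for 24 hours, followed by compound for 6 hours.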

NUGC3 p53 Y220C = test: Cell Proliferation Assay (CellTiter-Glo, CTG), NUGC3 p53 Y220C; type: cell-based; settings: Homo sapiens, NUGC-3, 120 h, CellTiter-Glo, 5 days
Outline: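 Tet-One inducible p53 Y220C or R273H constructs were stably introduced into NCI-H1299 by lentiviral transduction; NUGC3 was used as is. Cells (250-500 per well) were exposed to compound for 5 days, then CellTiter-Glo was added for 10 min at room temperature and IC50 was calculated from luminescence.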

[1] = target: T1, p53 Y220C mutant protein (amino acid residues 94-293) (Homo sapiens, UniProt P04637, Y220C); test: Surface Plasmon Resonance (SPR) assay, Kd_kinetic; type: binding; settings: read-out: SPR P53 Y220C KD kinetic
T1 construct: p53 Y220C mutant protein (amino acid residues 94-293)
Outline: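 Surface plasmon resonance is run at 16 or 20 °C in 50 mM Tris pH 7.5 containing 100 mM NaCl, 1 mM DTT, 0.01% Brij35, 0.05% Tween-20 and 1% DMSO. Association and dissociation data are fitted to a 1:1 model.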

[2] = target: T1, p53 Y220C mutant protein (amino acid residues 94-293); test: Thermal Shift Assay (TSA), dTM; type: binding; settings: for ΔTm at 100 µM: 100 uM compound, read-out: TSA P53 Y220C dTM (100 uM); for ΔTm at 10 µM: 10 uM compound
Outline: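 First, the mutant DNA-binding domain (5 μM) was preincubated 3 hours at 20 °C with compound at 10 μM or 100 μM. Next, the sample was heated from 30 °C to 50 °C at 0.03 °C/second in the presence of Sypro Orange. Finally, TM was obtained from a two-state Boltzmann fit.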

H1299 p53 Y220C = test: Cell Proliferation Assay (CellTiter-Glo, CTG), H1299 p53 Y220C (NClH1299-inducible p53 Y220C); type: cell-based; settings: Homo sapiens, NCI-H1299, 120 h, CellTiter-Glo, 5 days
Outline: (§1)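 Cells seeded at 250-500 per well and exposed to compound for 5 days. Viability read by CellTiter-Glo luminescence after 10 min at room temperature; IC50 calculated. H1299 lines carry Tet-One inducible p53 mutant constructs introduced by lentiviral transduction.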

H1299 p53 R273H = test: Cell Proliferation Assay (CellTiter-Glo, CTG), H1299 p53 R273H (NClH1299-inducible p53 R273H); type: cell-based; settings: Homo sapiens, NCI-H1299, 120 h, CellTiter-Glo, 5 days
Outline: as §1

[3] = 10 uM tool compound as positive control
[4] = thermal shift, read-out: TSA P53 Y220C dTM (10 uM)
[5] = p53 Y220C, read-out: TSA P53 Y220C dTM
[6] = NClH1299-inducible p53 Y220C cells
[7] = NClH1299-inducible p53 R273H cells

Row | Compound | Emax (p53 Y220C; [3]) [%] | AC50 (p53 Y220C) [nM] | IC50 (NUGC3 p53 Y220C; NUGC3 p53 Y220C) [nM] | Kd ([1]; SPR, kinetic KD, p53 Y220C) [nM] | ΔTm at 100 µM ([2]; thermal shift) [°C] | IC50 (H1299 p53 Y220C; H1299 p53 Y220C) [nM] | IC50 (H1299 p53 R273H; H1299 p53 R273H) [nM] | ΔTm at 10 µM [2, 4] [°C] | AC50 (p53 Y220C; AC50) [nM] | Emax (p53 Y220C; Emax) [%] | IC50 (NUGC3 p53 Y220C; NUGC3 cells) [nM] | Kd ([1]; SPR, p53 Y220C) [nM] | ΔTm at 10 µM [2, 5] [°C] | IC50 (H1299 p53 Y220C; [6]) [nM] | IC50 (H1299 p53 R273H; [7]) [nM] | Kd [1] [nM]
1 | CNC(=O)Nc1cc(NC2CCN(C)CC2)c2nc(C#CCNc3ccc(C(=O)NC)cc3OC)c(CC(F)(F)F)n2c1 [Example 44, 3-methoxy-N-methyl-4-[(3-{6-[(methylcarbamoyl)amino]-8-[(1-methylpiperidin-4-yl)amino]-3-(2,2,2-trifluoroethyl)imidazo[1,2-a]pyridin-2-yl}prop-2-yn-1-yl)amino]benzamide] | < 70 | > 3000 | > 3000 | 100 to 1000 | 1 to 5 | > 3000 | ≥ 10000 | – | – | – | – | – | – | – | – | –
2 | COc1cc(C(N)=O)ccc1NCC#Cc1nc2c(N[C@@H]3CCN(C)C[C@@H]3F)cccn2c1SC(F)(F)F [Example 165] | > 90 | < 750 | < 750 | < 10 | ≥ 10 | < 750 | 8000 to 10000 | ≥ 10 | – | – | – | – | – | – | – | –
3 | CCS(=O)(=O)c1ccc(NCC#Cc2nc3c(N[C@@H]4CCN(C)C[C@@H]4F)cccn3c2CC(F)(F)F)c(OC)c1 [Example 66, (3S,4R)—N-[2-(3-{[4-(ethanesulfonyl)-2-methoxyphenyl]amino}prop-1-yn-1-yl)-3-(2,2,2-trifluoroethyl)imidazo[1,2-a]pyridin-8-yl]-3-fluoro-1-methylpiperidin-4-amine] | 70 to 80 | < 750 | < 750 | < 10 | ≥ 10 | < 750 | 5000 to 8000 | – | – | – | – | – | – | – | – | –
4 | CNC(=O)c1cc(OC)c(NCC#Cc2nc3c(N[C@@H]4CCN(C)C[C@@H]4F)cccn3c2CC(F)(F)F)cc1Cl [Example 111, 2-chloro-4-{[3-(8-{[(3S,4R)-3-fluoro-1-methylpiperidin-4-yl]amino}-3-(2,2,2-trifluoroethyl)imidazo[1,2-a]pyridin-2-yl)prop-2-yn-1-yl]amino}-5-methoxy-N-methylbenzamide] | > 90 | 750 to 1500 | 750 to 1500 | < 10 | ≥ 10 | 750 to 1500 | ≥ 10000 | – | – | – | – | – | – | – | – | –
5 | COc1ccc(C(=O)NC(C)C)cc1NCC#Cc1nc2c(N[C@@H]3CCN(C)C[C@@H]3F)cccn2c1SC(F)(F)F [Example 145] | 80 to 90 | < 750 | < 750 | < 10 | ≥ 10 | < 750 | ≥ 10000 | ≥ 10 | – | – | – | – | – | – | – | –
6 | CNC(=O)c1cc(F)c(OC)c(NCC#Cc2nc3c(N[C@@H]4CCN(C)C[C@@H]4F)cccn3c2SC(F)(F)F)c1 [Example 303] | – | – | – | – | – | – | – | – | < 750 | > 90 | < 750 | < 10 | ≥ 10 | < 750 | ≥ 10000 | –
7 | CNC(=O)c1ccc(OC)c(NCC#Cc2nc3c(N[C@H]4C[C@@H]5CC[C@@H](N5)[C@H]4F)cccn3c2SC(F)(F)F)c1 [Example 203] | 70 to 80 | < 750 | < 750 | < 10 | ≥ 10 | < 750 | 5000 to 8000 | ≥ 10 | – | – | – | – | – | – | – | –
8 | CNC(=O)c1cnc(OC)c(NCC#Cc2cc3c(N[C@@H]4CCNC[C@@H]4F)nccn3c2SC(F)(F)F)c1 [Example 292] | – | – | – | – | – | – | – | – | < 750 | > 90 | < 750 | < 10 | ≥ 10 | < 750 | ≥ 10000 | –
9 | COc1cc(S(C)(=O)=O)ccc1NCC#Cc1nn2c(N[C@@H]3CCNC[C@@H]3F)cccc2c1SC(F)(F)F [Example 238] | – | – | – | – | – | – | – | – | < 750 | 80 to 90 | < 750 | < 10 | ≥ 10 | < 750 | 5000 to 8000 | –
10 | COc1cc(S(C)(=O)=O)ccc1NCC#Cc1cc2c(N[C@@H]3CCN(C)C[C@@H]3F)nccn2c1SC(F)(F)F [Example 342] | – | – | – | – | – | – | – | – | < 750 | > 90 | < 750 | – | ≥ 10 | < 750 | 5000 to 8000 | < 10
11 | CNC(=O)c1ccc(OC)c(NCC#Cc2cc3c(N[C@@H]4CCN(C)C[C@@H]4F)nccn3c2SC(F)(F)F)c1 [Example 156, 3-{[3-(1-{[(3S,4R)-3-fluoro-1-methylpiperidin-4-yl]amino}-6-[(trifluoromethyl)sulfanyl]pyrrolo[1,2-a]pyrazin-7-yl)prop-2-yn-1-yl]amino}-4-methoxy-N-methylbenzamide] | > 90 | < 750 | < 750 | < 10 | ≥ 10 | < 750 | 8000 to 10000 | ≥ 10 | – | – | – | – | – | – | – | –
12 | COc1cc(S(C)(=O)=O)ccc1NCC#Cc1nc2c(N[C@@H]3CCNC[C@@H]3F)cccn2c1CC(F)(F)F [Example 8, (3S,4R)-3-fluoro-N-(2-{3-[(4-methanesulfonyl-2-methoxyphenyl)amino]prop-1-yn-1-yl}-3-(2,2,2-trifluoroethyl)imidazo[1,2-a]pyridin-8-yl)piperidin-4-amine] | 70 to 80 | 750 to 1500 | 750 to 1500 | < 10 | ≥ 10 | 750 to 1500 | 5000 to 8000 | – | – | – | – | – | – | – | – | –
13 | COc1cc(S(C)(=O)=O)ccc1NCC#Cc1nc2c(NC3CCN(C)CC3)cccn2c1CC(F)(F)F [Example 2, N-(2-{3-[(4-methanesulfonyl-2-methoxyphenyl)amino]prop-1-yn-1-yl}-3-(2,2,2-trifluoroethyl)imidazo[1,2-a]pyridin-8-yl)-1-methylpiperidin-4-amine] | < 70 | > 3000 | 1500 to 3000 | 10 to 100 | ≥ 10 | 1500 to 3000 | 5000 to 8000 | – | – | – | – | – | – | – | – | –
14 | CNC(=O)c1ccc(OC[C@@H](C)O)c(NCC#Cc2cc3c(N[C@@H]4CCN(C)C[C@@H]4F)nccn3c2SC(F)(F)F)c1 (single isomer, unassigned) [Example 356] | – | – | – | – | – | – | – | – | < 750 | > 90 | < 750 | < 10 | ≥ 10 | < 750 | ≥ 10000 | –
15 | CNC(=O)c1cnc(OC)c(NCC#Cc2cc3c(N[C@@H]4CN(C)C[C@@H]4F)cccn3c2SC(F)(F)F)c1 [Example 338] | – | – | – | – | – | – | – | – | < 750 | > 90 | < 750 | < 10 | ≥ 10 | < 750 | 5000 to 8000 | –
16 | COc1cc(P(C)(C)=O)ccc1NCC#Cc1cc2c(N[C@@H]3CCN(C)C[C@@H]3F)nccn2c1SC(F)F [Example 257] | – | – | – | – | – | – | – | – | < 750 | 80 to 90 | < 750 | < 10 | ≥ 10 | < 750 | ≥ 10000 | –
17 | CCNC(=O)c1ccc(NCC#Cc2nc3c(N[C@@H]4CCN(C)C[C@@H]4F)cccn3c2CC(F)(F)F)c(OC)c1 [Example 47, N-ethyl-4-{[3-(8-{[(3S,4R)-3-fluoro-1-methylpiperidin-4-yl]amino}-3-(2,2,2-trifluoroethyl)imidazo[1,2-a]pyridin-2-yl)prop-2-yn-1-yl]amino}-3-methoxybenzamide] | 70 to 80 | > 3000 | > 3000 | 10 to 100 | ≥ 10 | 1500 to 3000 | ≥ 10000 | – | – | – | – | – | – | – | – | –
18 | COc1cc(C(=O)N2CCC2)ccc1NCC#Cc1nc2c(N[C@@H]3CCN(C)C[C@@H]3F)cccn2c1SC(F)(F)F [Example 87, (3S,4R)—N-[2-(3-{[4-(azetidine-1-carbonyl)-2-methoxyphenyl]amino}prop-1-yn-1-yl)-3-[(trifluoromethyl)sulfanyl]imidazo[1,2-a]pyridin-8-yl]-3-fluoro-1-methylpiperidin-4-amine] | 80 to 90 | < 750 | < 750 | < 10 | ≥ 10 | < 750 | 8000 to 10000 | – | – | – | – | – | – | – | – | –
